Data: patent US20190365719A1, “COMBINATION TREATMENTS OF HSP90 INHIBITORS FOR ENHANCING TUMOR IMMUNOGENICITY AND METHODS OF USE THEREOF” (Massachusetts Institute of Technology, priority 2018, published 2019)

Assays:
[1] = system: human peripheral blood mononuclear cells; test: RNA sequencing of ex vivo human peripheral blood mononuclear cells; format: cell-based; conditions: 500 nM for 20 hrs
Experimental: Whole blood was collected into lithium-heparin tubes and processed with Histopaque-1077 (Sigma) to isolate peripheral blood mononuclear cells per supplier's instructions. After overnight culture in RPMI160 with 20% autologous plasma, ganetespib (500 nM) or an equal volume of solvent vehicle (DMSO 0.1% v/v) was added to duplicate dishes. Incubation was continued for 24 hours after which cells were collected by centrifugation, lysed in RLT buffer (Qiagen) and total RNA isolated using an RNeasy kit per manufacturer's instructions (Qiagen). Sequencing library preparation was performed by the Whitehead Genome Technology Core using standard Illumina protocols and TruSeq adapters. Single-end, 40 bp sequencing was performed on a HiSeq 2000 instrument. Adapter sequences were trimmed, and reads were aligned to […] using TopHat2 and rpkm values generated with Cufflinks. Differential expression analysis was performed with the Bioconductor package DEseq.
To evaluate the immunosuppressive effect of high level HSP90 inhibition in a more controlled fashion, freshly isolated human peripheral blood mononuclear cells were cultured in ganetespib (500 nM for 20 hrs.) and the effects on RNA expression genome-wide were measured (FIG. 2A).

immune-related genes = test: NanoString immune profiling of whole blood from breast cancer patients given ganetespib; format: in vivo, human; conditions: 20-24 hours post intravenous drug administration, recommended Phase II dose
Experimental: Blood samples for gene expression analyses were obtained with informed consent from patients participating in an IRB-approved clinical trial coordinated by the Dana-Farber Cancer Institute, Boston, Mass. (DFCI 11-477, NCT01560416). All samples were processed and analyzed by collaborating investigators in an anonymous fashion to preserve patient confidentiality.
Gene expression measurements using Nanostring codesets were performed with NanoString XT GEx kits. Analyses were performed on total RNA from clinical samples or mouse tumor tissue following manufacturer's instructions. Briefly, 100 ng total RNA (measured by Qubit (Invitrogen)), was mixed with Capture and Reporter probe sets and hybridized for 16-20 hours at 65° C. prior to ramping down to hold at 4° C. Hybridized samples were processed on a Nanostring Prep Station according to manufacturer's instructions and then scanned with an FOV setting of 1100. All files (.rcc) were analyzed using nSolver v3.0 software.
As an approach to examine the impact of HSP90 compromise on the immune system in human cancer patients exposed to recommended dosing of an HSP90i, the RNA expression of immune-related genes in whole blood collected from 20 patients was profiled. […]

[2] = cited from earlier work
[3] = 10 mg/kg i.v., test animals; cited from earlier work
[4] = system: A375 and A2780 xenografts; conditions: 60 mg/kg i.v.; cited from earlier work
[5] = system: refractory neuroendocrine tumors (NET)s; conditions: 42-100 mg/m2 every other day; cited from earlier work
[6] = phase I, intravenous infusion days 1, 8 and 15, 4-weekly schedule

## CC(C)c1cc(-c2n[nH]c(=O)n2-c2ccc3c(ccn3C)c2)c(O)cc1O [Ganetespib]
[1]
  most downregulated Gene Ontology categories: immune-related pathways
  most upregulated Gene Ontology categories: RNA splicing and protein folding
immune-related genes
  expression of immune-related genes in whole blood: broad down-regulation of expression across diverse immune-related genes
[2]; clinical use
  side effects / adverse effects: diarrhea, fatigue, nausea, and anorexia
[2]; days 1 and 8 of a 21-day cycle, phase II
  MTD as a combination therapy with crizotinib: 200 mg/m2
[2]; human, in vivo
  ocular toxicity: No ocular toxicity has been reported
[2]; [6]
  MTD as a monotherapy: 216 mg/m^2
  highest dose with acceptable toxicity (RP2D): 200 mg/m^2

## CN1CCC(NC(=O)c2cc(-c3c(O)cc(O)cc3Oc3ccc([N+](=O)[O-])cc3)on2)CC1 [NMS-E973]
[3]
  blood-brain barrier penetration: ability to cross the blood-brain barrier
  pharmacokinetic profile: favorable pharmacokinetic profile
[4]
  antitumor efficacy: high antitumor efficacy

## CC1(C)CC(=O)c2c(C(F)(F)F)nn(-c3ccc(C(N)=O)c(N[C@H]4CC[C@H](OC(=O)CN)CC4)c3)c2C1 [SNX-5422]
[2]; oral, pancreatic NETs and nonfunctional gastrointestinal and pulmonary NETs
  MTD: 75 mg/m^2
[5]
  patients achieving stable disease for >8 cycles: 2 of 3
